Series [1] can be described thus: Solubility of silanes in water-isopropanol mixtures. The format is physicochemical. The following applies: for Water solubility: comparison methoxysilane vs ethoxysilane, see Table 4; for Soluble?: water-isopropanol, 96.0 % water (wt.). The method, then: An aqueous solution of silane was prepared by charging to a vessel 4 grams of isopropanol, 0.7 grams of acetic acid and then 1.57 grams (4% by wt silica) of mercapto Propyl trimethoxysilane (Silquest A189). The mixture was then stirred vigorously at room temperature while 96 grams of water was slowly added. The mixture was then stirred for a further 15 minutes until the solution cleared.
The following experiments were conducted to examine the solubility of various silane coupling agents.

Experiment in series [2]: as above
The format is physicochemical. The following applies: for Soluble?: water-isopropanol.

Here are results for 4 compounds from US8357733B2, “Processes for making silane, hydrophobated silica, silica masterbatch and rubber products” (Industrias Negromex, S.A. de C.V., priority 2008, dated 2013).

In the case of `CCO[Si](CCCSSCCC[Si](OCC)(OCC)OCC)(OCC)OCC` [TESPD, bis-(3-triethoxysilylpropyl)-disulfide], in series [1] (procedure of comparative example 1A (4 grams isopropanol, 0.7 grams acetic acid, 96 grams water), high purity TESPD), the “Solubility in the water-alcohol mixture” value was “not soluble”. Also, the “Soluble?” value in series [2] (22.2 % water (wt.), pH 3.8) is “soluble and Yes”; in series [2] (27.8 % water (wt.), pH 3.5), “insoluble and No”.

`CCO[Si](CCCS)(OCC)OCC` [MPTES, mercaptopropyltriethoxysilane]: in series [1], the Water solubility entry is “insoluble”. In addition, the “Soluble?” value in series [2] (63.2 % water (wt.), pH 3.5-4.0) is “insoluble and No”.

For `CO[Si](CCCS)(OC)OC` [MPTMS, mercaptopropyl trimethoxysilane], the Water solubility entry in series [1] is given as “soluble”. The “Soluble?” value in series [1] (pH 3.5-4.0) is recorded as “soluble”; in series [1] (pH 3.5-4.0, listed as MPTMS (A189)), “Yes”; in series [2] (63.2 % water (wt.), pH 3.5-4.0), “Yes”.

`CO[Si](CCCSSCCC[Si](OC)(OC)OC)(OC)OC` [TMSPD, bis-(3-trimethoxysilylpropyl)-disulfide]: the “Soluble?” value in series [1] (pH 4.1) is “soluble”; in series [1] (pH 4.1, listed as TMSPD (Present invention)) it was “Yes”. In series [2] (TMSPD prepared using the Pletka process, no unusual precautions to purify the methanol), the “Solubility in 70/30 water/isopropanol mixture” value is reported as “insoluble”.
